The values that follow come from patent US11666656B2, “Polymeric conjugates and uses thereof” (Ramot at Tel-Aviv University Ltd., priority 2016, dated 2023).

SMILES strings stand for the structures.

One assay has as its system 131/4-5B1 melanoma cells. Nature of the assay: Proliferation of 131/4-5B1 melanoma cells (viable cell count). The class given is cell-based. The note with it: Homo sapiens; 131/4-5B1 cells, 72 hours incubation. The method, then: 131/4-5B1 (human melanoma brain-metastasis cell line that was obtained from Dr. Kerbel' Lab) (15,000/well) were plated onto 24-well culture in RPMI medium supplemented with 10% FBS and incubated for 24 hours (37° C.; 5% CO2). The medium was then replaced with RPMI supplemented with 10% FBS. Cells were exposed to free selumetinib, free amine-modified dabrafenib (Scheme 8) or both, at a SLM-DBF mol ratio of 10:1 at serial dilutions. Number of viable cells was counted by a Z1 Coulter Counter® Cell and Particle Counter (Beckman Coulter®) following 72 hours incubation.
Inhibition of 131/4-5B1, human melanoma brain-metastasis cells by free selumetinib (SLM), free diol-modified dabrafenib (DBFdiol; see, Scheme 11), a combination of the free drugs at 3:1 SLM:DBFdiol mol ratio, PGA-SLM (see, Scheme 19), PGA-DBFdiol (see, Scheme 11), a combination of PGA-SLM and PGA-DBFdiol, and PGA-SLM-DBFdiol conjugate (see, Scheme 23) was determined.
131/4-5B1 cells (15,000/well) were plated onto 24-well culture in RPMI medium supplemented with 10% FBS and incubated for 24 hours (37° C.; 5% CO2). […] Cells were exposed to PGA-SLM conjugate, PGA-DBFdiol conjugate, to the combination of both at a SLM-DBF mol ratio of 10:1 and to the combined PGA-SLM-DBFdiol conjugate, calculated according to the SLM loading and assuming 10:1 mol ratio between SLM and DBF, at serial dilutions. […]

Assay [1] relates to MEK and ERK phosphorylation. Conditions: BRAF mutated cell lines; cited from earlier work.
The test system of another assay is mutant BRAF. The note with it: cell lines; cited from earlier work.
The test system of the next assay is melanoma xenografts. The note with it: cited from earlier work.

Broadly, the IC50 is the concentration that gives 50% inhibition.

For the compound `Cn1cnc2c(F)c(Nc3ccc(Br)cc3Cl)c(C(=O)NOCCO)cc21` [SLM, Selumetinib], the IC50 with 131/4-5B1 melanoma cells came to 70 nM.
Consider `CC(C)(C)c1nc(-c2cccc(NS(=O)(=O)c3c(F)cccc3F)c2F)c(-c2ccnc(N)n2)s1` [Dabrafenib], for which the “inhibition of MEK and ERK phosphorylation” value in assay [1] is “dose-dependent inhibition”. Moreover, the “selectivity for mutant BRAF over wild-type BRAF” value in the assay with mutant BRAF was “more than 100 fold”. For the same compound, in the assay on melanoma xenografts, the tumor regression result is recorded as “induces tumor regression”.
